The IC50 is the concentration at which inhibition is half-maximal.

Each structure is given as a SMILES string. Counter-ions that a name gives are not always drawn.

61 compounds from ChEMBL document CHEMBL4017441, “Mitigating the inhibition of human bile salt export pump by drugs: opportunities provided by physicochemical property modulation, in silico modeling, and structural modification” (Drug Metab Dispos, 2012) can be followed below.

The target in this assay is Bile salt export pump (Homo sapiens, UniProt O95342). The format is ADME.

Regarding `C=CCN1CC[C@]23c4c5ccc(O)c4O[C@H]2C(=O)CC[C@@]3(O)[C@H]1C5` [NALOXONE], the IC50 amounted to 549 µM.

On to `CS(=O)(=O)Oc1ccc(OCCc2ccc(C[C@H](SCCc3ccc(O)cc3)C(=O)O)cc2)cc1`, for which the IC50 was below 13.4 µM. As for `CN1CC(=O)N=C1NC(=O)Nc1cccc(Cl)c1` [FENOBAM ANHYDROUS], the concentration for half-maximal inhibition (IC50) is above 1000 µM. With `CCS[C@]1(SC)CC[C@H]2[C@@H]3CCC4=CC(=O)C=C[C@]4(C)[C@@]3(F)[C@@H](O)C[C@@]21C`, the IC50 was below 10 µM.

For `CCC1(c2ccc(N)cc2)CCC(=O)NC1=O` (stereo unspecified) [AMINOGLUTETHIMIDE], the IC50 was above 1000 µM. Take `CCN1CCN(C(=O)N[C@@H](C(=O)N[C@@H]2C(=O)N3[C@@H]2SC(C)(C)[C@@H]3C(=O)O)c2ccccc2)C(=O)C1=O` [PIPERACILLIN]: the IC50 is 197 µM. Take `Cc1nnc(NS(=O)(=O)c2ccc(N)cc2)s1` [SULFAMETHIZOLE]: the IC50 is above 1000 µM. Under `Clc1ccc(COC(Cn2ccnc2)c2ccc(Cl)cc2Cl)cc1` (stereo unspecified) [ECONAZOLE] stands below 10 µM; under `O=C1C(O)=C(O)C(=O)C(O)=C1O` [TETROQUINONE], above 1000 µM; under `CC(C)[N+](C)(CCOC(=O)C1c2ccccc2Oc2ccccc21)C(C)C` [PROPANTHELINE BROMIDE], 291 µM. On to `CCn1ccnc1CC1COc2ccccc2O1` (stereo unspecified) [IMILOXAN], for which the IC50 turned out to be 61.7 µM. Consider `Cc1oncc1C(=O)Nc1ccc(C(F)(F)F)cc1` [LEFLUNOMIDE], for which the IC50 was found to be 110 µM. Consider `CCCc1c(OCC(O)COc2ccc3c(=O)cc(C(=O)O)oc3c2CCC)ccc(C(C)=O)c1O` (stereo unspecified) [FPL-55712], for which the IC50 was below 10 µM. Under `C[C@H](Oc1ccc(C(F)(F)F)cc1-c1ccc(S(C)(=O)=O)c(C(F)(F)F)c1)C(=O)O` stands 35.8 µM. `CC(Cc1ccccc1)(NC(=O)CN)c1ccccc1` (stereo unspecified) [REMACEMIDE]: the IC50 is 288 µM. Turning to `CCc1ccc(CCOc2ccc(CC3SC(=O)NC3=O)cc2)nc1` (stereo unspecified) [PIOGLITAZONE], the IC50 came to 0.262 µM. For the compound `C/C(=N\OC(C)(C)C(=O)O)c1csc(N)n1`, the 50% inhibitory concentration (IC50) is above 1000 µM.

Take `O=C(C1CCCCC1)N1CC(=O)N2CCc3ccccc3C2C1` (stereo unspecified) [PRAZIQUANTEL]: the concentration for half-maximal inhibition (IC50) came to 60.3 µM.

As for `O=CN(O)C(CCc1ccccc1)CS(=O)(=O)N1CCN(c2ccc(F)cc2)CC1` (stereo unspecified), the IC50 was below 10 µM. Regarding `O=C(O)c1cc(-c2ccccc2)nc2ccccc12` [CINCHOPHEN], the IC50 is above 814 µM. On to `Cc1ccc(S(=O)(=O)NC(=O)NN2CC3CCCC3C2)cc1` (stereo unspecified) [GLICLAZIDE], for which the IC50 was found to be 591 µM. Take `Cc1scc2c1N(C(=O)CN1CCN(C)CC1)c1ccccc1NC2=O` [TELENZEPINE]: the IC50 turned out to be 315 µM. Regarding `CC(=O)NC[C@H]1CN(c2ccc(C(=O)c3cnc4ccc(Cl)cn34)cc2)C(=O)O1`, the half-maximal inhibitory concentration (IC50) was 27.6 µM. For `COC(=O)C1=C(C)NC(C)=C(C(=O)OC)C1c1ccccc1[N+](=O)[O-]` [NIFEDIPINE], the IC50 worked out at 18.7 µM. On to `CCCc1nn(C)c2c(=O)[nH]c(-c3cc(S(=O)(=O)N4CCN(C)CC4)ccc3OCC)nc12`, for which the IC50 is 16.4 µM. To `COc1ccccc1O` [GUAIACOL] belongs above 1000 µM; to `Cc1ccnc2c1NC(=O)c1cccnc1N2C1CC1` [NEVIRAPINE], 295 µM; to `CC[C@@H](Nc1c(Nc2cccc(C(=O)N(C)C)c2O)c(=O)c1=O)c1ccc(C)o1` [NAVARIXIN ANHYDROUS], below 10 µM. Turning to `Oc1ccc(C2CNCCc3c2cc(O)c(O)c3Cl)cc1` (stereo unspecified) [FENOLDOPAM], the IC50 was above 1000 µM. With `Cn1c(=O)c2c(ncn2CC(O)CO)n(C)c1=O` (stereo unspecified) [DYPHYLLINE], the IC50 was above 1000 µM. Consider `C[C@@H](O)[C@H]1C(=O)N2C(C(=O)O)=C(SCCN=CN)C[C@H]12` [IMIPENEM ANHYDROUS], for which the IC50 is above 1000 µM. Under `N=c1nc(N2CCCCC2)cc(N)n1O` stands above 1000 µM; under `CN(C)CCC(c1ccccc1)c1ccccn1` (stereo unspecified) [PHENIRAMINE MALEATE], above 1000 µM. As for `Cc1ccc(CCCN[C@H](C)CO)cc1C(=O)NCC12CC3CC(CC(C3)C1)C2`, the half-maximal inhibitory concentration (IC50) amounted to 65.6 µM. Regarding `CN1CCc2cccc3c2[C@H]1Cc1ccc(O)c(O)c1-3` (stereo in doubt; form 1) [APOMORPHINE], the IC50 turned out to be 211 µM. On to `O=C(c1ccc(-c2ccncc2)cc1)N1CCN(S(=O)(=O)c2cc3cc(Cl)ccc3[nH]2)CC1`, for which the concentration for half-maximal inhibition (IC50) was below 10 µM. Under `Cc1ccc(C(=O)Nc2ccc(S(=O)(=O)O)c3cc(S(=O)(=O)O)cc(S(=O)(=O)O)c23)cc1NC(=O)c1cccc(NC(=O)Nc2cccc(C(=O)Nc3cc(C(=O)Nc4ccc(S(=O)(=O)O)c5cc(S(=O)(=O)O)cc(S(=O)(=O)O)c45)ccc3C)c2)c1` [SURAMIN] stands 107 µM; under `CCN(CC)CCNC(=O)c1c(C)[nH]c(/C=C2\C(=O)Nc3ccc(F)cc32)c1C` [SUNITINIB], 45.8 µM; under `COC1C(OC(=O)/C=C/C=C/C=C/C=C/C(=O)O)CCC2(CO2)C1C1(C)OC1CC=C(C)C` (stereo unspecified), 25.6 µM. `CC(C[N+](C)(C)C)OC(N)=O` (stereo unspecified) [BETHANECHOL]: the IC50 is above 1000 µM. In the case of `NC(=O)NC(=O)Cc1ccccc1` [PHENACEMIDE], the IC50 is above 1000 µM. Turning to `C[C@@H]1C[C@H]2[C@@H]3C[C@H](F)C4=CC(=O)C=C[C@]4(C)[C@@]3(F)[C@@H](O)C[C@]2(C)[C@@]1(O)C(=O)CO` [FLUMETHASONE], the 50% inhibitory concentration (IC50) was 68.5 µM. To `CS(=O)(=O)OCCCCOS(C)(=O)=O` [BUSULFAN] belongs above 1000 µM. Regarding `CC(=O)Nc1ccccc1` [ACETANILIDE], the IC50 is above 1000 µM. For the compound `CCN(CC)CCNC(=O)c1ccc(NS(C)(=O)=O)cc1` [SEMATILIDE], the IC50 is above 1000 µM. `c1ccc2c(c1)sc1ccccc12` [DIBENZOTHIOPHENE]: the IC50 turned out to be 388 µM. Consider `CCC(NC(C)C)C(O)c1ccc(O)c(O)c1` (stereo unspecified) [ISOETHARINE], for which the half-inhibitory concentration (IC50) is above 1000 µM.

For the compound `CC(C)NCC(O)c1ccc(O)c(O)c1` (stereo unspecified) [ISOPROTERENOL], the IC50 is above 986 µM.

As to `CC(C)(C(=O)c1cccnc1)c1cccnc1` [METYRAPONE], the 50% inhibitory concentration (IC50) is 229 µM.

Consider `CC(=O)Nc1ccc(CC(=O)O)cc1` [ACTARIT], for which the IC50 was above 1000 µM.

In the case of `Cc1cc(O)cc(C)c1Cl` [CHLOROXYLENOL], the half-maximal inhibitory concentration (IC50) was found to be 130 µM.

As to `CCCC(=O)c1cnc2c(OCC[S+](C)[O-])cccc2c1Nc1ccc(F)cc1C` (stereo unspecified), the concentration for half-maximal inhibition (IC50) is below 10 µM. Regarding `CN(C)c1nc(N(C)C)nc(N(C)C)n1` [ALTRETAMINE], the IC50 is above 1000 µM. Under `C[C@H](N)[C@H](O)c1cccc(O)c1` [METARAMINOL] stands above 1000 µM; under `CC1(C)O[C@@H]2C[C@H]3[C@@H]4C[C@H](F)C5=CC(=O)CC[C@]5(C)[C@H]4[C@@H](O)C[C@]3(C)[C@]2(C(=O)CO)O1` [FLURANDRENOLIDE], 71.2 µM; under `CCCc1c2nc(C(=O)O)cc(N(C)C(C)=O)c2cc2c(=O)cc(C(=O)O)oc12`, above 1000 µM. `CC(C)(C)C(=O)CN1CC2CN(CCCNc3ccc(C#N)cc3)CC(C1)O2`: the concentration for half-maximal inhibition (IC50) came to 514 µM. To `CCCNCC(O)COc1ccccc1C(=O)CCc1ccccc1` (stereo unspecified) [PROPAFENONE] belongs 53.7 µM.

Consider `CCN(CC)CCOC(=O)C(c1ccccc1)c1ccccc1` [ADIPHENINE], for which the 50% inhibitory concentration (IC50) worked out at 158 µM.

Take `CC1=C(/C=C/C(C)=C/C=C/C(C)=C/C=C/C=C(C)/C=C/C=C(C)/C=C/C2=C(C)CCCC2(C)C)C(C)(C)CCC1` [BETA CAROTENE]: the concentration for half-maximal inhibition (IC50) is below 10 µM. On to `Cc1ccccc1OCC(O)CO` (stereo unspecified) [MEPHENESIN], for which the half-maximal inhibitory concentration (IC50) is above 1000 µM.
